Data: patent US20250127166A1, “METHOD FOR PREVENTING INSECT DAMAGE TO PLANTS” (AJINOMOTO CO., INC., priority 2022, published 2025)
“Also recorded” adds a separate entry of the source.

Columns and labels:
[1] = tested on: Pieris rapae; experiment: 4-hour feeding damage test on Arabidopsis thaliana (Example 3); format: in vivo; settings: for pest damage-suppressing activity: Pieris rapae larva, 4-hour feeding damage test
Excerpt: The recombinant Arabidopsis thaliana […]: : GCaMP3 was used as a plant material, and cut was formed on the first leaf of the plant grown in the same manner as in Example 1 and treated with a compound. Compound 1 was used as the compound. Sorbitol was used as the negative control, and glutamic acid as the positive control. The test was repeatedly conducted 10 times (using independent plants and pests) per plot. One hour after the treatment with the compound, the plant body and 2-week old larva of Pieris rapae were placed in the same container to perform a 4-hour feeding damage test. Weights of the plant body and larva were measured before and after the test to evaluate the weight of the feeding-damaged plant and the weight gain rate of the pest.

[2] = tested on: Pieris rapae; experiment: 4-hour feeding damage test on Arabidopsis thaliana, comparison with commercial product (Example 4); format: in vivo; settings: Compound 1 at 100 mM on leaf cut, 4-hour test
Procedure: The recombinant Arabidopsis thaliana […]: : GCaMP3 was used as a plant material, and cut was formed on the first leaf of the plant cultivated in the same manner as those of Examples 1, 2, and 3 and treated with a compound. Compound 1 and Jasmomate were used as the compound. Compound 1 was used at 100 mM, and Jasmomate was used at a 500-fold dilution concentration (0.4 mM as prohydrojasmon concentration), which is the usual recommended treatment concentration thereof. Sorbitol was used as a negative control. The test was conducted for 15 replicates per plot (independent plants and insects). For Jasmomate, a spray treatment of the leaves was performed (spray plot, Jasmomate was sprayed twice at the concentration mentioned above with an atomizer). The test of the spray plot was conducted for 10 replicates (independent plants and insects). One hour after the compound treatment, the plant body and 2-week old larva of Pieris rapae were placed in the same container to perform a 4-hour feeding damage test. The larva was weighed before and after the test, and the weight gain rate of the pest was evaluated.

[3] = tested on: Spodoptera litura; experiment: Komatsuna leaf disc feeding damage test (Example 5); format: in vivo; settings: one day
Procedure: Glutamic acid was used as a positive control, and Jasmomate Ekizai (the active substance is prohydrojasmon, a typical injurious hormone-like substance), which is the only resistance inducer for pest damage on the market, was used as a control. The test was conducted for 10 replicates per plot (independent plants and pests).
The plant material was leaf discs collected from komatsuna (Brassica rapa var. perviridis) seedlings grown for 1 month after seeding on culture soil in pots, and the test organism was early second instar larva of Spodoptera litura. Compound 1 was used as a 1 mM solution in Silwet L-77 4,000-fold dilution solution prepared by adding Silwet L-77 to distilled water as a solvent. As a negative control, 100 mM or 1 mM sorbitol was used, and 100 mM or 1 mM glutamic acid was used as a positive control. […] One day after the release, the number of surviving Spodoptera litura larvae in each test container was counted, and a photograph was taken from a height of 5 cm above the container with the lid open so that the entire image could be photographed. Image analysis software (ImageJ) was used to determine the damage area (feeding damage area), and the average damage area ratio was calculated for each treatment plot.

[4] = tested on: AtOPR^3 gene; experiment: Pest damage resistance gene expression induction by qPCR; format: in vivo, Arabidopsis thaliana; settings: sixth leaves, 30 minutes after compound treatment of cut first leaf; relative to AtACT8; FIG. 1
Excerpt: As the pest damage resistance gene, the AtOPR^3 (12-oxophytodienoic acid reductase, involved in the jasmonic acid biosynthesis) gene, which is a typical pest damage resistance gene, was selected. As an internal standard, the AtACT8 gene was selected. The recombinant Arabidopsis thaliana p35S: : GCaMP3 was used as a plant material, and cut was formed on the first leaf of the plant cultivated in the same manner as in Example 1 and treated with a compound. As the compound, Compounds 1 and 34 were used. Sixth leaves at 0 and 30 minutes after the compound treatment were collected and frozen in liquid nitrogen. The total RNA was extracted from the frozen leaf samples (50 to 200 mg) by using RNeasy Plant Mini Kit (Qiagen) according to the protocol thereof. The obtained total RNA was subjected to a residual genomic DNA-removing treatment with RNase free DNase I by using TURBO DNase Kit (Ambion) according to the protocol of the kit. By using this total RNA sample and SuperScriptIII First-Strand Synthesis System for RT-PCR (Invitrogen), single-stranded cDNA was prepared. […] The relative expression amount of the AtOPR^3 gene to that of the internal standard AtACT8 gene was calculated by the AACt method. The test was repeatedly performed 4 or 5 times, and the average of the results was calculated.

[5] = tested on: glutamate receptor of Arabidopsis thaliana; experiment: Real-time imaging assay of Ca2+ signals in recombinant Arabidopsis thaliana p35S::GCaMP3; format: in vivo; settings: 3 μL of 100 mM solution (10 mM for some compounds with low solubility) applied to leaf cut; GCaMP3 fluorescence
Procedure: In this example, Ca2+signals produced by contact of Compounds 1-58 and 67-75 with the glutamate receptor of Arabidopsis thaliana were analyzed by a real-time imaging assay in which Ca2+is visualized by fluorescence color development. That is, by using a recombinant Arabidopsis thaliana p35S: : GCaMP3, which incorporated the gene encoding the calcium-sensitive fluorescent protein GCaMP3, as a material, changes in intracellular Ca2+ levels caused by treatments with Compounds 1-58 and 67-75 were detected as fluorescence luminance of GCaMP3, and thereby Ca2+signal transduction in plant bodies was analyzed in real time.
The real-time imaging assay of the Ca2+signals was performed as follows.
As the plant material, 2-week old recombinant Arabidopsis thaliana p35S: : GCaMP3 grown on sterile agar medium was used. A small cut of about 1 mm was made at the tip of the first leaf with scissors, and the plant was allowed to stand for 35 minutes. The plant was then placed under the field of view of the fluorescence microscope SMZ25 (Nikon Solutions), and 3 μL of a compound solution was applied to the leaf cut. The generated Ca2+signals were examined in real time with ORCA-Flash4.0 V2 (Hamamatsu Photonics). […] Compounds that produced Ca2+signals in one or more leaves were determined to be compounds that induce Ca2+signals.

Ca2+signal induction [5]	Structure (SMILES)	weight of the feeding-damaged plant ([1]; 2-week old Pieris rapae larva, 4-hour test 1 hour after treatment, vs sorbitol plot, FIG. 2)	weight gain rate of the pest ([1]; 2-week old Pieris rapae larva, 4-hour test 1 hour after treatment, vs sorbitol plot, FIG. 3)	pest damage-suppressing activity [1]	pest damage-suppressing activity [2]	weight gain rate of the pest ([2]; vs sorbitol plot, FIG. 4)	pest damage-suppressing effect (feeding inhibitory effect) ([3]; 1 mM in Silwet L-77 4,000-fold dilution solution)	pest damage resistance gene (AtOPR^3) expression-inducing activity [4]	pest damage-suppressing tendency ([3]; 100 mM, compared with 100 mM sorbitol plot)
strong Ca2+signal induction	CC(C)OC(=O)CC[C@H](N)C(=O)O [Compound 1]	lower in the Compound 1-treated plot than in the sorbitol-treated plot	lower in the Compound 1-treated plot than in the sorbitol-treated plot	distinct pest damage-suppressing activity was observed	distinct pest damage-suppressing activity was observed	lower in the Compound 1-treated plot than in the sorbitol-treated plot	higher than those observed for the 100 mM glutamic acid treatment plot and Jasumomate treatment plot	equal to or greater than that of glutamic acid; also recorded: high pest damage resistance gene expression-inducing activity	–
strong Ca2+signal induction	N[C@@H](CCC(=O)N[C@@H](CCC(=O)O)C(=O)O)C(=O)O [Compound 34]	–	–	–	–	–	–	equal to or greater than that of glutamic acid	–
–	N[C@@H](CCC(=O)O)C(=O)O [glutamic acid, reference compound]	–	–	no pest damage-suppressing activity was observed	–	–	–	–	greater pest damage-suppressing tendency was observed
